# Experimental data as given in ChEMBL document CHEMBL1201862, “PubChem BioAssay data set” (2004).
#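 Following 48 hours of exposure in 96-well plates, responses at five concentrations were used to interpolate endpoints linearly. The concentration for 50% growth inhibition is given as GI50.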 Calls of active or inactive are those of the source. No stated cut-off is given here; in the data, active = GI50 up to about 1.1 µM and inactive = higher. Starred links: 1 amine or outer side, 2 acyl side, 3 side chain; linkers in the order of their positions; H or OH if unused. Non-standard residues stand in square brackets, D forms with d. Residues, ends and D or L forms follow the SMILES beside them. *: point of attachment. X34 = CC(=O)N(C)SCC(N[*:1])C(=O)[*:2]; Cbz = O=C(OCc1ccccc1)*; Bn = c1ccc(C*)cc1; For = O=C*
# Assays:
# Test in all cases: growth of human tumour cells (NCI), 48 h
# HCC 2998 = system: HCC 2998
# MDA-N = system: MDA-N
# Hs-578T = system: Hs-578T
# OVCAR-3 = system: OVCAR-3
# DU-145 = system: DU-145
# HOP-92 = system: HOP-92
# COLO 205 = system: COLO 205
# SK-OV-3 = system: SK-OV-3
# MDA-MB-435 = system: MDA-MB-435
# NCI/ADR-RES = system: NCI/ADR-RES
# HL-60 = system: HL-60
# SN12C = system: SN12C
# HOP-62 = system: HOP-62
# A549 = system: A549
# A498 = system: A498
# NCI-H226 = system: NCI-H226
# RXF 393 = system: RXF 393
# UACC-62 = system: UACC-62
# NCI-H522 = system: NCI-H522
Structure (SMILES),GI50 (HCC 2998),GI50 (MDA-N),GI50 (Hs-578T),GI50 (OVCAR-3),GI50 (DU-145),GI50 (HOP-92),GI50 (COLO 205),GI50 (SK-OV-3),GI50 (MDA-MB-435),GI50 (NCI/ADR-RES),GI50 (HL-60),GI50 (SN12C),GI50 (HOP-62),GI50 (A549),GI50 (A498),GI50 (NCI-H226),GI50 (RXF 393),GI50 (UACC-62),GI50 (NCI-H522)
NP1(Oc2ccc(F)cc2)=NP(N)(Oc2ccc(F)cc2)=NP(Oc2ccc(F)cc2)(Oc2ccc(F)cc2)=N1 (stereo not given),3.19 µM (inactive),6.47 µM (inactive),5.64 µM (inactive),4.68 µM (inactive),7.52 µM (inactive),3.78 µM (inactive),6.64 µM (inactive),14.2 µM (inactive),7.01 µM (inactive),6.17 µM (inactive),5.09 µM (inactive),6.18 µM (inactive),9.68 µM (inactive),3.99 µM (inactive),< 0.01 µM (active),–,–,–,–
CCOC(=O)[C@@H]1C[C@H]1c1ccc(O)c(O)c1,31.6 µM (inactive),12.7 µM (inactive),28.4 µM (inactive),29 µM (inactive),10.1 µM (inactive),> 100 µM (inactive),57.8 µM (inactive),43.1 µM (inactive),10.2 µM (inactive),43.3 µM (inactive),–,75.5 µM (inactive),84.9 µM (inactive),41.3 µM (inactive),–,70.6 µM (inactive),26.6 µM (inactive),17.1 µM (inactive),16.4 µM (inactive)
O=c1[nH]c2nc3ccccc3c(=O)n2/c1=C/c1ccc(O)cc1,22.2 µM (inactive),32.3 µM (inactive),18.6 µM (inactive),27 µM (inactive),30.8 µM (inactive),49.5 µM (inactive),43.9 µM (inactive),> 100 µM (inactive),25.5 µM (inactive),41.7 µM (inactive),26 µM (inactive),30.6 µM (inactive),64 µM (inactive),40.6 µM (inactive),–,38.7 µM (inactive),40.2 µM (inactive),27 µM (inactive),23.2 µM (inactive)
CC(C)(/C=N/O)/[N+]([O-])=C/c1ccccc1,> 100 µM (inactive),> 100 µM (inactive),> 100 µM (inactive),> 100 µM (inactive),> 100 µM (inactive),> 100 µM (inactive),> 100 µM (inactive),> 100 µM (inactive),> 100 µM (inactive),> 100 µM (inactive),–,> 100 µM (inactive),> 100 µM (inactive),> 100 µM (inactive),–,> 100 µM (inactive),> 100 µM (inactive),> 100 µM (inactive),–
Cc1cccc(-c2cccc(COCc3cccc(-c4cccc(CO)n4)n3)n2)n1,> 50 µM (inactive),> 50 µM (inactive),35.7 µM (inactive),3.7 µM (inactive),> 50 µM (inactive),47.2 µM (inactive),4.11 µM (inactive),> 50 µM (inactive),> 50 µM (inactive),5.26 µM (inactive),8.28 µM (inactive),> 50 µM (inactive),> 50 µM (inactive),> 50 µM (inactive),> 50 µM (inactive),> 50 µM (inactive),–,> 50 µM (inactive),> 50 µM (inactive)
CC1(C)C=C(/C=N/Nc2ccc(Br)cc2)C(C#N)=C(O)C1(C#N)C#N,24.5 µM (inactive),42.2 µM (inactive),63.8 µM (inactive),31.9 µM (inactive),66.7 µM (inactive),22.4 µM (inactive),19.8 µM (inactive),57.8 µM (inactive),39.7 µM (inactive),45.2 µM (inactive),26.1 µM (inactive),59.8 µM (inactive),63 µM (inactive),39.2 µM (inactive),–,88.3 µM (inactive),33.8 µM (inactive),38.7 µM (inactive),75.9 µM (inactive)
O=C(COc1ccccc1)N(C(=O)N1CCN(c2ccccc2)CC1)S(=O)(=O)c1ccccc1,> 100 µM (inactive),62.4 µM (inactive),> 100 µM (inactive),62.4 µM (inactive),98.6 µM (inactive),> 100 µM (inactive),> 100 µM (inactive),> 100 µM (inactive),> 100 µM (inactive),56.8 µM (inactive),83.4 µM (inactive),53 µM (inactive),72.8 µM (inactive),> 100 µM (inactive),> 100 µM (inactive),57.4 µM (inactive),–,> 100 µM (inactive),31.9 µM (inactive)
Cc1cc2ccc(N)nc2nc1O,–,> 100 µM (inactive),> 100 µM (inactive),–,> 100 µM (inactive),> 100 µM (inactive),> 100 µM (inactive),> 100 µM (inactive),> 100 µM (inactive),> 100 µM (inactive),> 100 µM (inactive),> 100 µM (inactive),–,> 100 µM (inactive),–,51.6 µM (inactive),> 100 µM (inactive),> 100 µM (inactive),49.2 µM (inactive)
O=CN(CCN1CCCC1)C1CCc2cc(Cl)c(Cl)cc2C1 (stereo not given),17.5 µM (inactive),10 µM (inactive),13.6 µM (inactive),12.3 µM (inactive),34.7 µM (inactive),33.2 µM (inactive),20.4 µM (inactive),0.714 µM (active),15 µM (inactive),19.5 µM (inactive),19.2 µM (inactive),11 µM (inactive),11.3 µM (inactive),7.71 µM (inactive),–,–,10.9 µM (inactive),–,10.1 µM (inactive)
CCOP(=O)(OCC)C(C)(CC)NC1=NC(C(F)(F)F)(C(F)(F)F)NC(=O)N1 (stereo not given),> 100 µM (inactive),> 100 µM (inactive),29.8 µM (inactive),> 100 µM (inactive),> 100 µM (inactive),> 100 µM (inactive),> 100 µM (inactive),> 100 µM (inactive),> 100 µM (inactive),> 100 µM (inactive),> 100 µM (inactive),> 100 µM (inactive),> 100 µM (inactive),> 100 µM (inactive),–,11.3 µM (inactive),> 100 µM (inactive),> 100 µM (inactive),–
Cc1nc2ccccc2n1COC(Cn1ccnc1)c1ccc(Cl)cc1Cl (stereo not given),76 µM (inactive),48.8 µM (inactive),81.7 µM (inactive),41.4 µM (inactive),> 100 µM (inactive),23.3 µM (inactive),39.3 µM (inactive),–,50.1 µM (inactive),99.8 µM (inactive),30.5 µM (inactive),> 100 µM (inactive),57.3 µM (inactive),72.4 µM (inactive),> 100 µM (inactive),–,–,56.5 µM (inactive),> 100 µM (inactive)
NS(=O)(=O)c1ccc(NC(=S)N/C=C2\C(=O)Nc3ccccc3C2=O)cc1,> 100 µM (inactive),> 100 µM (inactive),> 100 µM (inactive),> 100 µM (inactive),> 100 µM (inactive),> 100 µM (inactive),> 100 µM (inactive),> 100 µM (inactive),> 100 µM (inactive),> 100 µM (inactive),2.07 µM (inactive),> 100 µM (inactive),> 100 µM (inactive),> 100 µM (inactive),–,> 100 µM (inactive),> 100 µM (inactive),> 100 µM (inactive),> 100 µM (inactive)
C=CCC(C(=O)Nc1cccc2nc[nH]c12)C(=O)OCC (stereo not given),> 100 µM (inactive),> 100 µM (inactive),> 100 µM (inactive),> 100 µM (inactive),> 100 µM (inactive),> 100 µM (inactive),–,> 100 µM (inactive),> 100 µM (inactive),83.6 µM (inactive),33.2 µM (inactive),> 100 µM (inactive),> 100 µM (inactive),> 100 µM (inactive),> 100 µM (inactive),> 100 µM (inactive),–,85.3 µM (inactive),> 100 µM (inactive)
COc1cccc(C(=O)Oc2ccc(OS(=O)(=O)c3ccc(C)cc3)cc2)c1C#N,–,68.2 µM (inactive),86.7 µM (inactive),29.9 µM (inactive),93.1 µM (inactive),41.6 µM (inactive),71.4 µM (inactive),–,55.5 µM (inactive),33 µM (inactive),34.1 µM (inactive),> 100 µM (inactive),> 100 µM (inactive),23.6 µM (inactive),–,> 100 µM (inactive),37.6 µM (inactive),87.3 µM (inactive),86.7 µM (inactive)
COc1cc2c(cc1OCCCCOc1cc3c(cc1OC)C(=O)N1CCC[C@H]1C(=O)N3)N=C[C@@H]1CCCN1C2=O,11.7 µM (inactive),7.28 µM (inactive),10.3 µM (inactive),11.5 µM (inactive),17.2 µM (inactive),–,2.55 µM (inactive),–,4.2 µM (inactive),13.4 µM (inactive),9.18 µM (inactive),9.75 µM (inactive),10.9 µM (inactive),18.3 µM (inactive),6.71 µM (inactive),13.5 µM (inactive),3.59 µM (inactive),3.35 µM (inactive),1.12 µM (inactive)
CC(=O)N(C)SCC(NC(=O)C(Cc1ccccc1)NC(=O)OCc1ccccc1)C(=O)NC(Cc1ccccc1)C(=O)NC(Cc1cn(C=O)c2ccccc12)C(=O)NC(CCCCNC(=O)OCc1ccccc1)C(=O)NC(C(=O)NC(CSN(C)C(C)=O)C(=O)NC(C(N)=O)C(C)OCc1ccccc1)C(C)OCc1ccccc1 (stereo not given) (Cbz-F[X34]FW(For)K(Cbz)T(Bn)[X34]T(Bn)-NH2; configuration not given here),> 100 µM (inactive),> 100 µM (inactive),8.63 µM (inactive),> 100 µM (inactive),> 100 µM (inactive),19.7 µM (inactive),> 100 µM (inactive),33.2 µM (inactive),> 100 µM (inactive),> 100 µM (inactive),> 100 µM (inactive),> 100 µM (inactive),82.8 µM (inactive),> 100 µM (inactive),–,> 100 µM (inactive),14.6 µM (inactive),84.9 µM (inactive),87.9 µM (inactive)
